From patent US20240239811A1, “5-(5-(PIPERIDIN-4-YL)THIENO[3,2-C]PYRAZOL-2-YL]INDAZOLE DERIVATIVES AND RELATED COMPOUNDS AS MODULATORS FOR SPLICING NUCLEIC ACIDS AND FOR THE T” (REMIX THERAPEUTICS INC., priority 2020, published 2024)
Where a name gives a salt, the structure may show the parent alone.

Key:
Type in all cases: cell-based
SMN2 CJ mRNA = assay: Gene panel canonical junction qPCR assay, SMN2; conditions: Table 6, decrease in CJ mRNA, read-out: SMN2 IC50 (decrease in CJ mRNA levels)
Procedure: (§1) Compounds described herein were used to modulate RNA transcript abundance in cells. The expression of a target mRNA was measured by detecting the formation of an exon-exon junction in the canonical transcript (CJ). A compound mediated exon-inclusion event was detected by observing an increase in formation of a new junction with an alternative exon (AJ). Real-time qPCR assays were used to detect these splicing switches and interrogate the potency of various compounds towards different target genes. A high-throughput real time quantitative PCR (RT-qPCR) assay was developed to measure these two isoforms of the mRNA (CJ and AJ) for an exemplary gene, HTT, together with a control housekeeping gene, GAPDH or GUSB or PPIA, used for normalization. Briefly, the A673 or K562 cell line was treated with various compounds described herein (e.g., compounds of Formula (I)). After treatment, the levels of the HTT mRNA targets were determined from each sample of cell lysate by cDNA synthesis followed by qPCR.
(§2) The A673 cell line was cultured in DMEM with 10% FBS. Cells were diluted with full growth media and plated in a 96-well plate (15,000 cells in 100ul media per well). The plate was incubated at 37° C. with 5% CO2 for 24 hours to allow cells to adhere. An 11-point 3-fold serial dilution of the compounds was made in DMSO then diluted in media in an intermediate plate. Compounds were transferred from the intermediate plate to the cell plate with the top dose at a final concentration of 10 uM in the well. Final DMSO concentration was kept at or below 0.25%. The cell plate was returned to the incubator at 37° C. with 5% CO2 for an additional 24 hours.
(§3) The K562 cell line was cultured in IMDM with 10% FBS. For K562, cells were diluted with full growth media and plated in either a 96-well plate (50,000 cells in 50 uL media per well) or a 384-well plate (8,000-40,000 cells in 45 uL media per well). An 11-point 3-fold serial dilution of the compounds were made in DMSO then diluted in media in an intermediate plate. Compound was transferred from the intermediate plate to the cell plate with the top dose at a final concentration of 10 uM in the well. Final DMSO concentration was kept at or below 0.25%. Final volume was 100 uL for 96-well plate and 50 uL for 384-well plate. The cell plate was then placed in an incubator at 37° C. with 5% CO2 for 24 hours.
(§4) The data analysis was performed by first determining the ΔCt vs the housekeeper gene. This ΔCt was then normalized against the DMSO control (ΔΔCt) and converted to RQ (relative quantification) using the 2^(−ΔΔCt) equation. The RQ were then converted to a percentage response by arbitrarily setting an assay window of 3.5 ΔCt for HTT-CJ and an assay window of 9 ΔCt for HTT-AJ. […] The percentage response was then fitted to the 4 parametric logistic equation to evaluate the concentration dependence of compound treatment. The increase in AJ mRNA is reported as AC50 (compound concentration having 50% response in AJ increase) while the decrease in CJ mRNA levels is reported as IC50 (compound concentration having 50% response in CJ decrease).
(§5) Additional studies were carried out for a larger panel of genes using the protocol provided above. The junction between flanking upstream and downstream exons was used to design canonical junction qPCR assays. At least one of the forward primer, reverse primer or the CY5-labeled 5′ nuclease probe (with 3′ quencher such as ZEN/Iowa Black FQ) was designed to overlap with the exon junction to capture the CJ mRNA transcript. BLAST was used to confirm the specificity of the probeset and parameters such as melting temperature, GC content, amplicon size, and primer dimer formation are considered during their design. Data for the decrease in CJ mRNA levels for three exemplary genes (HTT, SMN2, and Target C) analyzed in this panel are reported as IC50 (compound concentration having […] in CJ decrease).

HTT CJ mRNA = assay: Gene panel canonical junction qPCR assay, HTT; conditions: Table 6, decrease in CJ mRNA, read-out: HTT IC50 (decrease in CJ mRNA levels)
Procedure: as §1, §2, §3, §4, §5

HTT mRNA = assay: Splicing assay (RT-qPCR) monitoring HTT splice variants, canonical (CJ) and alternative (AJ) junction; conditions: 50% response, A673 or K562 cell line, 24 hours; for IC50: decrease in CJ mRNA; for AC50: increase in AJ mRNA
Procedure: as §1
• Cells-to-CT 1-step kit: ThermoFisher A25602, Cells-to-CT lysis reagent: ThermoFisher 4391851C, TaqMan™ Fast Virus 1-Step Master Mix: ThermoFisher 4444436 • GAPDH: VIC-PL, ThermoFisher 4326317E (Assay: Hs99999905_ml)—used for K562/suspension cell lines • GUSB: VIC-PL, ThermoFisher 4326320E (Assay: Hs99999908_ml)—used for K562/suspension cell lines • PPIA: VIC-PL, ThermoFisher 4326316E (Assay: Hs99999904_ml)—used for A673/adherent cell lines
as §2, §3
The cells were then gently washed with 50 uL-100 uL cold PBS before proceeding to addition of lysis buffer. 30 uL-50 uL of room temperature lysis buffer with DNAse I (and optionally RNAsin) was added to each well. Cells were shaken/mixed thoroughly at room temperature for 5-10 minutes for lysis to take place and then 3 uL-5 uL of room temperature stop solution was added and wells were shaken/mixed again. After 2-5 minutes, the cell lysate plate was transferred to ice for RT-qPCR reaction setup. The lysates could also be frozen at −80° C. for later use.
In some cases, a direct lysis buffer was used. An appropriate volume of 3X lysis buffer (10 mM Tris, 150 mM NaCl, 1.5%-2.5% Igepal and 0.1-1 U/uL RNAsin, pH 7.4) was directly added to either K562 or A673 cells in media and mixed by pipetting 3 times. The plates were then incubated at room temperature with shaking/rocking for 20-50 minutes to allow for lysis to take place. After this time, the cell lysate plate was transferred to ice to set up for the RT-qPCR reactions. The lysates could also be frozen at −80° C. for later use. […]

Target C CJ mRNA = assay: Gene panel canonical junction qPCR assay, Target C; conditions: Table 6, decrease in CJ mRNA, read-out: Target C IC50 (decrease in CJ mRNA levels)
Procedure: as §1, §2, §3, §4, §5

Row | SMILES | IC50 (SMN2 CJ mRNA) [nM] | IC50 (HTT CJ mRNA) [nM] | IC50 (HTT mRNA) [nM] | IC50 (Target C CJ mRNA) [nM] | AC50 (HTT mRNA) [nM]
1 | Cc1cn2nc(-c3cc4cn([C@H]5CCNC[C@@H]5F)nc4s3)cc(C)c2n1 (mixture of isomers) [Compound 212, 5-(2,8-dimethylimidazo[1,2-b]pyridazin-6-yl)-2-((1:1 mixture of 3S,4S and 3R,4R)-3-fluoropiperidin-4-yl)-2H-thieno[2,3-c]pyrazole] | 100 to 1000 | 1000 to 10000 | 1000 to 10000 | > 10000 | 1000 to 10000
2 | Cn1cc2cc(-n3cc4sc(C5CCNCC5)cc4n3)ccc2n1 [Compound 100, 2-methyl-5-[5-(piperidin-4-yl)thieno[3,2-c]pyrazol-2-yl]indazole] |  |  |  | > 10000 | 1000 to 10000
3 | Cc1cn2nc(-n3cc4sc(C5CCNCC5)cc4n3)cc(C)c2n1 [Compound 101, 4-(2-[2,8-dimethylimidazo[1,2-b]pyridazin-6-yl]thieno[3,2-c]pyrazol-5-yl)piperidine] | < 100 | < 100 | < 100 | < 100 | 100 to 1000
4 | Cn1cc2cc(-n3cc4sc(C5CCNCC5)cc4n3)cc(F)c2n1 [Compound 105, 7-fluoro-2-methyl-5-[5-(piperidin-4-yl)thieno[3,2-c]pyrazol-2-yl]indazole] | 100 to 1000 | 100 to 1000 | 100 to 1000 | 1000 to 10000 | 100 to 1000
5 | Cn1cc2cc(-c3nc4sc(C5CCNCC5)cc4s3)cc(F)c2n1 [Compound 106, 7-fluoro-2-methyl-5-[5-(piperidin-4-yl)thieno[2,3-d][1,3]thiazol-2-yl]indazole] | < 100 | < 100 | < 100 | < 100 | < 100
6 | Cc1cn2nc(-n3cc4cc(C5CCNCC5)sc4n3)cc(C)c2n1 [Compound 110, 4-(2-[2,8-dimethylimidazo[1,2-b]pyridazin-6-yl]thieno[2,3-c]pyrazol-5-yl) piperidine] | < 100 | 100 to 1000 | 100 to 1000 |  | 100 to 1000
7 | Cc1cn2nc(-c3nc4sc(C5CCNCC5)cc4s3)cc(C)c2n1 [Compound 112, 4-(2-[2,8-dimethylimidazo[1,2-b]pyridazin-6-yl]thieno[2,3-d][1,3]thiazol-5-yl)piperidine] | < 100 | < 100 | < 100 | < 100 | < 100
8 | Cn1cc2cc(-c3cc4nn(C5CCNCC5)cc4s3)cc(F)c2n1 [Compound 121, 7-fluoro-2-methyl-5-[2-(piperidin-4-yl)thieno[3,2-c]pyrazol-5-yl]indazole] | < 100 | 100 to 1000 | 100 to 1000 |  | 100 to 1000
9 | Cn1cc2cc(-c3cc4cn(C5CCNCC5)nc4s3)cc(F)c2n1 [Compound 122, 7-fluoro-2-methyl-5-[2-(piperidin-4-yl)thieno[2,3-c]pyrazol-5-yl]indazole] | < 100 | < 100 | < 100 | < 100 | 100 to 1000
10 | Cn1cc2cc(-c3cc4sc(C5CCNCC5)nc4s3)cc(F)c2n1 [Compound 124, 7-fluoro-2-methyl-5-[2-(piperidin-4-yl)thieno[2,3-d][1,3]thiazol-5-yl]indazole] | < 100 | 100 to 1000 | 100 to 1000 | 100 to 1000 | < 100
11 | Cc1cn2nc(-c3cc4sc(C5CCNCC5)nc4s3)cc(C)c2n1 [Compound 125, 4-(5-[2,8-dimethylimidazo[1,2-b]pyridazin-6-yl]thieno [2,3-d][1,3]thiazol-2-yl) piperidine] | 100 to 1000 | 100 to 1000 | 100 to 1000 | 1000 to 10000 | 100 to 1000
12 | Cn1cc2ccc(-c3nc4sc(C5CCNCC5)cc4s3)cc2n1 [Compound 127, 2-methyl-6-[5-(piperidin-4-yl)thieno [2,3-d][1,3]thiazol-2-yl]indazole hydrochloride] | 1000 to 10000 | 1000 to 10000 | 1000 to 10000 | 1000 to 10000 | 1000 to 10000

More lines, main results first:

Row | IC50 (SMN2 CJ mRNA) [nM] | IC50 (HTT CJ mRNA) [nM] | IC50 (HTT mRNA) [nM] | IC50 (Target C CJ mRNA) [nM] | SMILES | AC50 (HTT mRNA) [nM]
13 | < 100 | < 100 | < 100 | 100 to 1000 | Cn1cc2cc(-c3cc4cn([C@H]5CCNC[C@H]5F)nc4s3)cc(F)c2n1 (stereo in doubt) [Compound 182] | 100 to 1000
14 | < 100 | 100 to 1000 | 100 to 1000 | 100 to 1000 | Cn1cc2cc(-c3cn4nc(C5CCNCC5)nc4s3)cc(F)c2n1 [Compound 102, 7-fluoro-2-methyl-5-[2-(piperidin-4-yl)-[1,2,4]triazolo[3,2-b][1,3]thiazol-5-yl]indazole] | 100 to 1000
15 | > 10000 | > 10000 | > 10000 | > 10000 | Cn1cc2cc(-c3nc4sc(C5CCNCC5)cn4n3)cc(F)c2n1 [Compound 103, 7-fluoro-2-methyl-5-[5-(piperidin-4-yl)-[1,2,4]triazolo[3,2-b][1,3]thiazol-2-yl]indazole] | > 10000
16 | < 100 | < 100 | < 100 | 100 to 1000 | Cn1cc2cc(-n3cc4cc(C5CCNCC5)sc4n3)cc(F)c2n1 [Compound 104, 7-fluoro-2-methyl-5-[5-(piperidin-4-yl)thieno[2,3-c]pyrazol-2-yl] indazole] | 100 to 1000
17 | 100 to 1000 | 100 to 1000 | 100 to 1000 | 1000 to 10000 | Cc1nc2c(F)cc(-c3nc4sc(C5CCNCC5)cc4s3)cc2s1 [Compound 126, 4-fluoro-2-methyl-6-[5-(piperidin-4-yl)thieno[2,3-d][1,3]thiazol-2-yl]-1,3-benzothiazole hydrochloride] | 100 to 1000
18 |  | 100 to 1000 | 100 to 1000 |  | Cn1cc2cc(-c3cc4cn([C@H]5CCNC[C@@H]5F)nc4s3)cc(F)c2n1 [Compound 190] | 100 to 1000
